What was measured:
MaltOBP9 [1] = biological target: T1, MaltOBP9 (Monochamus alternatus, UniProt A0A1I9HZK8); experiment: biochemical; set-up: 1-NPN fluorescence displacement competitive binding to 2 uM recombinant OBP; Ki from IC50
T1 construct: gene obp9; said to encode mature protein (clone primer starts at ATG)
T1 sequence (A0A1I9HZK8 1-140 limits assumed): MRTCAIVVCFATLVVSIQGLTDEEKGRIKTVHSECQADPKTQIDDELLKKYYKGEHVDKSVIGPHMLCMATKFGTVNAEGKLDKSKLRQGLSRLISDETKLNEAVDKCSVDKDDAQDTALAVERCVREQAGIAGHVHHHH
Procedure: (§1) Fluorescence-binding assays were performed to determine the binding affinities of MaltOBP9 and MaltOBP10 with 17 volatiles in neutral and acidic pH conditions separately using N-phenyl-1-naphthylamine (1-NPN) as the fluorescent probe. 1-NPN and all of the other chemicals used in the binding assays were purchased from Sigma-Aldrich (St. Louis, MO, United States). All of the ligand stock solutions were prepared in spectrophotometric grade methanol. The binding constants for 1-NPN were determined by adding aliquots of 1 mM 1-NPN to separate samples containing 2 μM of each OBP in 50 mM Tris–HCl at pH 7.4 and room temperature. The binding of 1-NPN was measured at an excitation wavelength of 337 nm and the fluorescence intensity was recorded between 300 and 600 nm during a high-speed scan using an RF-5301PC fluorescence spectrophotometer with a 1-cm light path and a quartz cuvette. Saturation curves were constructed for the binding of 1-NPN with the OBPs and the dissociation constant (Kd) of the binding reaction was calculated by performing Scatchard analysis of the data using the Prism 5 program (GraphPad, La Jolla, CA, United States). The binding analyses were performed based on the assumption that the protein was completely active and that the stoichiometry of binding was 1:1 at saturation. Aliquots of the competitor ligand were added to a sample containing 2 μM of each separate OBP and a standard concentration of 1-NPN. […] The binding data were collected during three independent high-speed scans. Ki representing the Kd of the competitor was determined based on the IC50 value (half maximal inhibitory concentration) for the competitor as the concentration of the competitor that displaced 50% of the bound 1-NPN at a standard total 1-NPN concentration (bound plus free) at equilibrium. Ki was calculated according to the following equation: Ki = [IC50]/(1+[1-NPN]/K), where 1-NPN is the free concentration of 1-NPN and K1–NPN is Kd for the 1-NPN-OBP binding reaction determined by Scatchard analysis ([Campanacci et al., 2001]). After confirmation by SDS-PAGE, the purified MaltOBP9 and MaltOBP10 proteins were used in fluorescence-binding assays to determine their binding affinities with different volatiles that come from forest. First, we analyzed the binding of the fluorescent probe 1-NPN with MaltOBP9 and MaltOBP10 (Figure 6). […] The binding affinities (Ki < 50) ([Zheng et al., 2016]) with all of the ligands indicted the broad binding ranges of MaltOBP9 and MaltOBP10 at pH 7.4. […] The change in the pH appeared to have less impact on the binding with MaltOBP10.

MaltOBP10 [2] = biological target: T2, MaltOBP10 (Monochamus alternatus, UniProt A0A1I9HZL5); experiment: biochemical; set-up: 1-NPN fluorescence displacement competitive binding to 2 uM recombinant OBP; Ki from IC50
T2 construct: gene obp10; said to encode mature protein (clone primer starts at ATG)
T2 sequence (A0A1I9HZL5 1-144 limits assumed): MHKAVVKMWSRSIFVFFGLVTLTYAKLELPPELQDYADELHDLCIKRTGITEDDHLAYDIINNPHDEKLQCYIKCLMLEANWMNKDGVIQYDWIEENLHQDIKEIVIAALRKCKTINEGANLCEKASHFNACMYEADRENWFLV
Procedure: as §1

MaltOBP10 [3] = biological target: T2, MaltOBP10; experiment: fluorescence titration, Scatchard analysis; format: binding; details: read-out: MaltOBP10 / pH7.4
Text: fluorescence titration, Scatchard analysis on MaltOBP10

MaltOBP9 [4] = biological target: T1, MaltOBP9; experiment: fluorescence titration, Scatchard analysis; format: binding; details: read-out: MaltOBP9 / pH7.4
Text: fluorescence titration, Scatchard analysis on MaltOBP9

MaltOBP9 [5] = biological target: T1, MaltOBP9; experiment: biochemical; set-up: direct 1-NPN fluorescence saturation binding to 2 uM recombinant OBP; Kd by Scatchard analysis; details: pH 5.0; read-out: MaltOBP9 / pH5.0
Procedure: (§2) Fluorescence-binding assays were performed to determine the binding affinities of MaltOBP9 and MaltOBP10 with 17 volatiles in neutral and acidic pH conditions separately using N-phenyl-1-naphthylamine (1-NPN) as the fluorescent probe. 1-NPN and all of the other chemicals used in the binding assays were purchased from Sigma-Aldrich (St. Louis, MO, United States). All of the ligand stock solutions were prepared in spectrophotometric grade methanol. The binding constants for 1-NPN were determined by adding aliquots of 1 mM 1-NPN to separate samples containing 2 μM of each OBP in 50 mM Tris–HCl at pH 7.4 and room temperature. The binding of 1-NPN was measured at an excitation wavelength of 337 nm and the fluorescence intensity was recorded between 300 and 600 nm during a high-speed scan using an RF-5301PC fluorescence spectrophotometer with a 1-cm light path and a quartz cuvette. Saturation curves were constructed for the binding of 1-NPN with the OBPs and the dissociation constant (Kd) of the binding reaction was calculated by performing Scatchard analysis of the data using the Prism 5 program (GraphPad, La Jolla, CA, United States). […] Ki was calculated according to the following equation: Ki = [IC50]/(1+[1-NPN]/K), where 1-NPN is the free concentration of 1-NPN and K1–NPN is Kd for the 1-NPN-OBP binding reaction determined by Scatchard analysis ([Campanacci et al., 2001]). […]

MaltOBP10 [6] = biological target: T2, MaltOBP10; experiment: biochemical; set-up: direct 1-NPN fluorescence saturation binding to 2 uM recombinant OBP; Kd by Scatchard analysis; details: pH 5.0; read-out: MaltOBP10 / pH5.0
Procedure: as §2

MaltOBP9 [7] = biological target: T1, MaltOBP9; experiment: fluorescence competitive binding, 1-NPN displacement; details: read-out: MaltOBP9 / pH7.4
Text: fluorescence competitive binding, 1-NPN displacement on MaltOBP9

MaltOBP10 [8] = biological target: T2, MaltOBP10; experiment: as above; details: read-out: MaltOBP10 / pH7.4
Text: fluorescence competitive binding, 1-NPN displacement on MaltOBP10

[9] = pH 5.0, read-out: MaltOBP9 / pH5.0
[10] = pH 7.4, read-out: MaltOBP9 / pH7.4
[11] = pH 5.0, read-out: MaltOBP10 / pH5.0
[12] = pH 7.4, read-out: MaltOBP10 / pH7.4

Structure (SMILES) | Ki (MaltOBP9 [1]; [10]) | Ki (MaltOBP10 [2]; [11]) | Ki (MaltOBP10 [2]; [12]) | Ki (MaltOBP9 [1]; [9]) | Ki (MaltOBP9 [7]) | Ki (MaltOBP10 [8]) | further results
C=C(C)C1CCC2(C)OC2C1 (single isomer, unassigned; (+)) [(+)-Limonene oxide] |  |  |  |  |  |  | Ki (MaltOBP9 [1]; pH 5.0, binder, read-out: MaltOBP9 / pH5.0): 48.8 ± 4.51 µM; Ki (MaltOBP9 [1]; pH 7.4, binder, read-out: MaltOBP9 / pH7.4): 43.3 ± 0.74 µM; Ki (MaltOBP10 [2]; pH 5.0, binder, read-out: MaltOBP10 / pH5.0): 46.1 ± 4.9 µM; Ki (MaltOBP10 [2]; pH 7.4, binder, read-out: MaltOBP10 / pH7.4): 19.8 ± 1.78 µM
c1ccc(Nc2cccc3ccccc23)cc1 [1-NPN] |  |  |  |  |  |  | Kd (MaltOBP10 [3]): 1350 ± 90 nM; Kd (MaltOBP9 [4]): 1700 ± 210 nM; Kd (MaltOBP9 [5]): 620 ± 180 nM; Kd (MaltOBP10 [6]): 5.88 ± 0.69 µM
CC1=CCC2C(C1)C2(C)C (stereo not drawn) [3-carene] | 25.1 ± 0.76 µM | 32.5 ± 4.28 µM | 42.5 ± 0.82 µM | 38.12 ± 0.23 µM |  |  | 
CC1(C)C(=O)[C@@]2(C)CC[C@@H]1C2 [(+)-Fenchone] | 27.8 ± 1.04 µM | 24.7 ± 1.29 µM | 22.7 ± 1.23 µM | 46.2 ± 2.59 µM |  |  | 
C=C1[C@H]2CC[C@@H]3[C@H]2[C@H](C(C)C)CC[C@]13C [(+)-Sativene] |  |  |  |  |  |  | Ki (MaltOBP9 [7]; pH 7.4, 50 mM Tris-HCl, room temperature, competitive with 1-NPN, 2 μM protein): 19.5 ± 0.36 µM
CC1=CC[C@@H]2[C@@H]3[C@H]1[C@@]2(C)CCCC3(C)C [(+)-α-longipinene] |  | 21.2 ± 1.75 µM |  | 34.7 ± 0.94 µM | 12.5 ± 0.67 µM | 11.6 ± 0.74 µM | 
CC1=CC[C@@H]2C[C@H]1C2(C)C [(+)-α-pinene] | 21.1 ± 2.84 µM | 17.3 ± 3.16 µM |  | > 50 µM |  | 13.3 ± 1.94 µM | 
C=C1CC[C@H]2O[C@]2(C)CC[C@@H]2[C@@H]1CC2(C)C [(−)-caryophyllene oxide] |  |  |  | 39.3 ± 0.73 µM | 15.3 ± 0.94 µM | 16.4 ± 0.4 µM | 
Cc1cc(C(C)(C)C)c(O)c(C(C)(C)C)c1 [Butylated hydroxytoluene] |  |  |  | 3.57 ± 0.58 µM | 9.58 ± 0.28 µM | 20.1 ± 2.75 µM | 
C=CC(=C)CCC=C(C)C [Myrcene] |  | 19.37 ± 0.02 µM |  | 3.96 ± 0.78 µM | 7.77 ± 0.14 µM | 12.4 ± 0.5 µM | 
C=C(C)[C@@H]1CC=C(C)CC1 [S-(−)-Limonene] | 29.2 ± 1.81 µM | 51.7 ± 5.74 µM |  | 12 ± 0.86 µM |  | 18.4 ± 0.67 µM | 
CC1=CCC(=C(C)C)CC1 [α-terpinolene] | 22.2 ± 0.34 µM | 15.6 ± 1.44 µM |  | 18.5 ± 0.23 µM |  | 17.5 ± 0.33 µM | 
C=C1CC/C=C(\C)CC[C@@H]2[C@@H]1CC2(C)C [β-Caryophyllene] |  | 23.5 ± 1.72 µM |  | 129 ± 9.52 µM | 16.36 ± 0.04 µM | 16.3 ± 1.97 µM | 

Continued, in another order:

Ki (MaltOBP9 [1]; [10]) | Ki (MaltOBP10 [2]; [11]) | Ki (MaltOBP10 [2]; [12]) | Structure (SMILES) | Ki (MaltOBP9 [1]; [9]) | Ki (MaltOBP9 [7]) | Ki (MaltOBP10 [8]) | further results
25.9 ± 0.76 µM | 21.2 ± 3.49 µM | 26.2 ± 1.76 µM | CC1(C)[C@H]2CC[C@]1(C)C(=O)C2 (racemic) [Camphor] | 50.5 ± 3.68 µM |  |  | 
 | 62.8 ± 1.08 µM | 25.8 ± 3.78 µM | C=C1CC[C@@H]2C[C@H]1C2(C)C [(+)-β-pinene] | 21.7 ± 0.65 µM |  |  | 
22.6 ± 1.08 µM | 14.8 ± 0.57 µM | 20.6 ± 1.22 µM | C=C1[C@@H]2CC[C@@H](C2)C1(C)C [Camphene] | > 50 µM |  |  | 
 | 55.5 ± 9.88 µM | 23.9 ± 1.89 µM | C=C(C)[C@H]1CC=C(C)CC1 [R-(+)-Limonene] | > 50 µM | 17.1 ± 2.24 µM |  | 
 | 35.4 ± 0.63 µM | 23.8 ± 2.33 µM | Cc1ccc(C(C)C)cc1 [p-cymene] | > 50 µM | 11.7 ± 0.23 µM |  | 
